system: CAL-85-1; assay: normalised response (% of control), CellTiter-Glo; higher = more viable cells (100 = DMSO, 0 = benzethonium chloride kill control); settings: incubation time: 72 h
Summary of the method: (§1)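 Each entry is the normalised signal at a single concentration within a series. The series comprised 5 concentrations in 10-fold steps over a compound-specific 10,000-fold range, placed in 384-well plates into which breast cancer cell lines were seeded as 20 µl suspension and incubated 72 h. CellTox Green (485/520 nm) fluorescence and then CellTiter-Glo luminescence were read, with signals normalised per plate to 0.1 % DMSO (100) and a positive kill control (0).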

Q: How did the normalised response turn out when `CC(=O)c1c(C)c2cnc(Nc3ccc(N4CCNCC4)cn3)nc2n(C2CCCC2)c1=O` [Palbociclib] (1 nM) was run?
A: Its normalised response is 97.8%.

Q: `CC(=O)c1c(C)c2cnc(Nc3ccc(N4CCNCC4)cn3)nc2n(C2CCCC2)c1=O` [Palbociclib] (10 nM) was tested. Which normalised response did it give?
A: The normalised response was 92%.

Q: Which normalised response does the source give for `CC[C@@H]1C(=O)OC[C@@H]1Cc1cncn1C` [Pilocarpine] (40 nM) here?
A: The normalised response was 103%.

Q: With `COc1cc(F)c(F)c(Nc2ccc(I)cc2F)c1NS(=O)(=O)C1(C[C@H](O)CO)CC1` [Refametinib] (1 nM) as the compound, how does the normalised response read?
A: The normalised response was 97%.

Q: How did the normalised response turn out when `COc1cc(F)c(F)c(Nc2ccc(I)cc2F)c1NS(=O)(=O)C1(C[C@H](O)CO)CC1` [Refametinib] (10 nM) was run?
A: The normalised response was 90.7%.

Q: With `CC(C)(C)c1cnc(CSc2cnc(NC(=O)C3CCNCC3)s2)o1` [SNS-032] (10 nM) as the compound, how does the normalised response read?
A: The normalised response was 109%.

Q: Which normalised response does the source give for `Cn1cnc2c(F)c(Nc3ccc(Br)cc3Cl)c(C(=O)NOCCO)cc21` [Selumetinib] (10 nM) here?
A: Its normalised response is 107%.

system: MDA-MB-436; assay: as above; settings: incubation time: 72 h
Summary of the method: as §1

Q: `CC1(C)CCC(CN2CCN(c3ccc(C(=O)NS(=O)(=O)c4ccc(NCC5CCOCC5)c([N+](=O)[O-])c4)c(Oc4cnc5[nH]ccc5c4)c3)CC2)=C(c2ccc(Cl)cc2)C1` [ABT-199] (1000 nM) was tested. Which normalised response did it give?
A: Its normalised response is 94.8%.

Q: `CC(=O)N(O)CCCCCNC(=O)CCC(=O)N(O)CCCCCNC(=O)CCC(=O)N(O)CCCCCN` [Deferoxamine] (1000 nM) was tested. Which normalised response did it give?
A: Its normalised response is 87.4%.

Q: `C[C@]12CC[C@@H]3c4ccc(OC(=O)N(CCCl)CCCl)cc4CC[C@H]3[C@@H]1CC[C@@H]2O` [Estramustine] (1000 nM) was tested. Which normalised response did it give?
A: The normalised response was 98.5%.

Q: With `Cc1ccc([N+](=O)[O-])cc1S(=O)(=O)N(C)/N=C/c1cnc2ccc(Br)cn12` [PIK-75] (1 nM) as the compound, how does the normalised response read?
A: The normalised response was 88.9%.

Q: `Cc1ccc([N+](=O)[O-])cc1S(=O)(=O)N(C)/N=C/c1cnc2ccc(Br)cn12` [PIK-75] (10 nM) was tested. Which normalised response did it give?
A: Its normalised response is 99.1%.

Q: How did the normalised response turn out when `CC(=O)c1c(C)c2cnc(Nc3ccc(N4CCNCC4)cn3)nc2n(C2CCCC2)c1=O` [Palbociclib] (1 nM) was run?
A: The normalised response was 101%.

Q: For `CC(=O)c1c(C)c2cnc(Nc3ccc(N4CCNCC4)cn3)nc2n(C2CCCC2)c1=O` [Palbociclib] (10 nM), which normalised response is on record?
A: Its normalised response is 95.4%.

Q: `CC[C@@H]1C(=O)OC[C@@H]1Cc1cncn1C` [Pilocarpine] (40 nM) was tested. Which normalised response did it give?
A: Its normalised response is 94%.

Q: How did the normalised response turn out when `COc1cc(F)c(F)c(Nc2ccc(I)cc2F)c1NS(=O)(=O)C1(C[C@H](O)CO)CC1` [Refametinib] (1 nM) was run?
A: The normalised response was 91.6%.

Q: With `COc1cc(F)c(F)c(Nc2ccc(I)cc2F)c1NS(=O)(=O)C1(C[C@H](O)CO)CC1` [Refametinib] (10 nM) as the compound, how does the normalised response read?
A: The normalised response was 90.7%.

Q: `CC(C)(C)c1cnc(CSc2cnc(NC(=O)C3CCNCC3)s2)o1` [SNS-032] (10 nM) was tested. Which normalised response did it give?
A: The normalised response was 101%.

Q: With `Cn1cnc2c(F)c(Nc3ccc(Br)cc3Cl)c(C(=O)NOCCO)cc21` [Selumetinib] (10 nM) as the compound, how does the normalised response read?
A: The normalised response was 96.3%.

system: Hs578T; assay: as above; settings: incubation time: 72 h
Summary of the method: as §1

Q: For `CC1(C)CCC(CN2CCN(c3ccc(C(=O)NS(=O)(=O)c4ccc(NCC5CCOCC5)c([N+](=O)[O-])c4)c(Oc4cnc5[nH]ccc5c4)c3)CC2)=C(c2ccc(Cl)cc2)C1` [ABT-199] (1000 nM), which normalised response is on record?
A: The normalised response was 98.7%.

Q: How did the normalised response turn out when `CC(=O)N(O)CCCCCNC(=O)CCC(=O)N(O)CCCCCNC(=O)CCC(=O)N(O)CCCCCN` [Deferoxamine] (1000 nM) was run?
A: Its normalised response is 96.8%.

Q: How did the normalised response turn out when `C[C@]12CC[C@@H]3c4ccc(OC(=O)N(CCCl)CCCl)cc4CC[C@H]3[C@@H]1CC[C@@H]2O` [Estramustine] (1000 nM) was run?
A: Its normalised response is 95.9%.

Q: `Cc1ccc([N+](=O)[O-])cc1S(=O)(=O)N(C)/N=C/c1cnc2ccc(Br)cn12` [PIK-75] (1 nM) was tested. Which normalised response did it give?
A: The normalised response was 97.9%.

Q: `Cc1ccc([N+](=O)[O-])cc1S(=O)(=O)N(C)/N=C/c1cnc2ccc(Br)cn12` [PIK-75] (10 nM) was tested. Which normalised response did it give?
A: The normalised response was 91.5%.

Q: How did the normalised response turn out when `CC(=O)c1c(C)c2cnc(Nc3ccc(N4CCNCC4)cn3)nc2n(C2CCCC2)c1=O` [Palbociclib] (1 nM) was run?
A: The normalised response was 95.7%.

Q: How did the normalised response turn out when `CC(=O)c1c(C)c2cnc(Nc3ccc(N4CCNCC4)cn3)nc2n(C2CCCC2)c1=O` [Palbociclib] (10 nM) was run?
A: The normalised response was 100%.

Q: For `CC[C@@H]1C(=O)OC[C@@H]1Cc1cncn1C` [Pilocarpine] (40 nM), which normalised response is on record?
A: Its normalised response is 98.1%.

Q: Which normalised response does the source give for `COc1cc(F)c(F)c(Nc2ccc(I)cc2F)c1NS(=O)(=O)C1(C[C@H](O)CO)CC1` [Refametinib] (1 nM) here?
A: The normalised response was 92.9%.

Q: How did the normalised response turn out when `COc1cc(F)c(F)c(Nc2ccc(I)cc2F)c1NS(=O)(=O)C1(C[C@H](O)CO)CC1` [Refametinib] (10 nM) was run?
A: The normalised response was 96.5%.

Q: With `CC(C)(C)c1cnc(CSc2cnc(NC(=O)C3CCNCC3)s2)o1` [SNS-032] (10 nM) as the compound, how does the normalised response read?
A: The normalised response was 102%.

Q: With `Cn1cnc2c(F)c(Nc3ccc(Br)cc3Cl)c(C(=O)NOCCO)cc21` [Selumetinib] (10 nM) as the compound, how does the normalised response read?
A: The normalised response was 99.4%.

system: MCF-10A; assay: as above; settings: incubation time: 72 h
Summary of the method: as §1

Q: Which normalised response does the source give for `CC1(C)CCC(CN2CCN(c3ccc(C(=O)NS(=O)(=O)c4ccc(NCC5CCOCC5)c([N+](=O)[O-])c4)c(Oc4cnc5[nH]ccc5c4)c3)CC2)=C(c2ccc(Cl)cc2)C1` [ABT-199] (1000 nM) here?
A: Its normalised response is 96.9%.

Q: `CC(=O)N(O)CCCCCNC(=O)CCC(=O)N(O)CCCCCNC(=O)CCC(=O)N(O)CCCCCN` [Deferoxamine] (1000 nM) was tested. Which normalised response did it give?
A: Its normalised response is 97.7%.

Q: With `C[C@]12CC[C@@H]3c4ccc(OC(=O)N(CCCl)CCCl)cc4CC[C@H]3[C@@H]1CC[C@@H]2O` [Estramustine] (1000 nM) as the compound, how does the normalised response read?
A: Its normalised response is 92%.

Q: Which normalised response does the source give for `Cc1ccc([N+](=O)[O-])cc1S(=O)(=O)N(C)/N=C/c1cnc2ccc(Br)cn12` [PIK-75] (1 nM) here?
A: Its normalised response is 95%.

From the supplement of paper PMC4862054
